This note sets out measurements from ChEMBL document CHEMBL5465560, “Selectivity Literature for EUbOPEN Chemogenomic Library” (2024).

Each structure is given as a SMILES string.

Test [1] concerns the target Leucine-rich repeat serine/threonine-protein kinase 2 (Homo sapiens, UniProt Q5S007). Kind of test: Selectivity interaction (Enzymatic assay) EUB0001632a LRRK2.
Test [2] has as its target Phosphatidylinositol 4-kinase beta (Homo sapiens, UniProt Q9UBF8). Kind of test: Selectivity interaction (Enzyme panel (AstraZeneca, AlphaScreen, functional assay)) EUB0000621a PI4KB.
Test [3] deals with LIM domain kinase 2 (Homo sapiens) (UniProt P53671). Kind of test: Selectivity interaction (KinomeScan (DiscoverX)) EUB0000666a LIMK2. Particulars: at 10 µM.
Test [4] deals with T1, Serine/threonine-protein kinase 4 (Homo sapiens) (UniProt Q13043).
T1 sequence (whole entry): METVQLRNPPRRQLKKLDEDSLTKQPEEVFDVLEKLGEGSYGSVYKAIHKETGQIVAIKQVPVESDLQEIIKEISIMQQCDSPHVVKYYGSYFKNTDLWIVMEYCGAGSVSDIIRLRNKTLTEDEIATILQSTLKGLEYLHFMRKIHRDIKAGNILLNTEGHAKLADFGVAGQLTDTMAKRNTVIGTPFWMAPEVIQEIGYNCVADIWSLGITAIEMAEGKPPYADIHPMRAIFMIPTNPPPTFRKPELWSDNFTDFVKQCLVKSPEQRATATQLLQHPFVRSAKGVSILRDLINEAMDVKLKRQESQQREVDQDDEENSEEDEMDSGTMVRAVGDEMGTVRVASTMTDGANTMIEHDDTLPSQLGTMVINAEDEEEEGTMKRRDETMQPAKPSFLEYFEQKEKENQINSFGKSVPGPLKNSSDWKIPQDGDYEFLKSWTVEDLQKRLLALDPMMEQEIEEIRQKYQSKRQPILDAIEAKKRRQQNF
Kind of test: Selectivity interaction (KinomeScan (DiscoverX)) EUB0000229b STK4. The settings on record: at 10 µM.

Test [5] deals with Calcium/calmodulin-dependent protein kinase type 1D (Homo sapiens) (UniProt Q8IU85). Briefly: Selectivity interaction (KinomeScan (DiscoverX)) EUB0000655a CAMK1D. Particulars: at 10 µM.
For test [6], the target named is Serine/threonine-protein kinase N2 (Homo sapiens, UniProt Q16513). Briefly: Selectivity interaction (Kinase panel (33PanQinase(R) Activity Assay)) EUB0000877a PKN2.
Test [7] addresses Platelet-derived growth factor receptor alpha (Homo sapiens, UniProt P16234). Kind of test: Selectivity interaction (Kinase panel (Invitrogen)) EUB0000639a PDGFRA. The settings on record: at 200 nM.
The subject of test [8] is Mast/stem cell growth factor receptor Kit (Homo sapiens), P10721 [V559D]. Particulars: at 10 µM.
In test [9] the target is LIM domain kinase 2 (Homo sapiens) (UniProt P53671). The settings on record: at 10 µM.
For test [10], the target named is T2, Phosphatidylinositol 5-phosphate 4-kinase type-2 beta (Homo sapiens) (UniProt P78356).
T2 sequence (whole entry): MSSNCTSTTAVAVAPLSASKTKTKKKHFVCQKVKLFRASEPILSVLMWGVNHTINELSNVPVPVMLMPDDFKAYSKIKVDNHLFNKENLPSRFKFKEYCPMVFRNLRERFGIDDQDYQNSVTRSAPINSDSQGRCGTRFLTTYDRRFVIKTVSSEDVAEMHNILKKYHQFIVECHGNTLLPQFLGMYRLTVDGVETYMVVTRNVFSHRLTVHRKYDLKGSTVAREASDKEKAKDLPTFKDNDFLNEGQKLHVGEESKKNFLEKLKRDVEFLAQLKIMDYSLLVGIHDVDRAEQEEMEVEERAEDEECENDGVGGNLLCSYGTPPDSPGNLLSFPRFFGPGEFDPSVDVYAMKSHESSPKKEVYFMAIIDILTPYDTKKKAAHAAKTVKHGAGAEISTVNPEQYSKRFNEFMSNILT
The settings on record: at 10 µM.

In test [11] the target is Serine/threonine-protein kinase SIK2 (Homo sapiens) (UniProt Q9H0K1). Kind of test: Selectivity interaction (KinomeScan (DiscoverX)) EUB0001049a SIK2. The settings on record: at 1 µM.
Test [12] concerns the target Leukocyte tyrosine kinase receptor (Homo sapiens, UniProt P29376). Briefly: Selectivity interaction (KinomeScan (DiscoverX)) EUB0000618a LTK. Particulars: at 10 µM.
Test [13] addresses Calcium/calmodulin-dependent protein kinase type II subunit alpha (Homo sapiens, UniProt Q9UQM7). Kind of test: Selectivity interaction (Upstate Kinase Profiler service (Millipore, enzymatic assay)) EUB0000056c CAMK2A.
Test [14] addresses T3, Mitogen-activated protein kinase kinase kinase kinase 3 (Homo sapiens) (UniProt Q8IVH8).
T3 sequence (whole entry): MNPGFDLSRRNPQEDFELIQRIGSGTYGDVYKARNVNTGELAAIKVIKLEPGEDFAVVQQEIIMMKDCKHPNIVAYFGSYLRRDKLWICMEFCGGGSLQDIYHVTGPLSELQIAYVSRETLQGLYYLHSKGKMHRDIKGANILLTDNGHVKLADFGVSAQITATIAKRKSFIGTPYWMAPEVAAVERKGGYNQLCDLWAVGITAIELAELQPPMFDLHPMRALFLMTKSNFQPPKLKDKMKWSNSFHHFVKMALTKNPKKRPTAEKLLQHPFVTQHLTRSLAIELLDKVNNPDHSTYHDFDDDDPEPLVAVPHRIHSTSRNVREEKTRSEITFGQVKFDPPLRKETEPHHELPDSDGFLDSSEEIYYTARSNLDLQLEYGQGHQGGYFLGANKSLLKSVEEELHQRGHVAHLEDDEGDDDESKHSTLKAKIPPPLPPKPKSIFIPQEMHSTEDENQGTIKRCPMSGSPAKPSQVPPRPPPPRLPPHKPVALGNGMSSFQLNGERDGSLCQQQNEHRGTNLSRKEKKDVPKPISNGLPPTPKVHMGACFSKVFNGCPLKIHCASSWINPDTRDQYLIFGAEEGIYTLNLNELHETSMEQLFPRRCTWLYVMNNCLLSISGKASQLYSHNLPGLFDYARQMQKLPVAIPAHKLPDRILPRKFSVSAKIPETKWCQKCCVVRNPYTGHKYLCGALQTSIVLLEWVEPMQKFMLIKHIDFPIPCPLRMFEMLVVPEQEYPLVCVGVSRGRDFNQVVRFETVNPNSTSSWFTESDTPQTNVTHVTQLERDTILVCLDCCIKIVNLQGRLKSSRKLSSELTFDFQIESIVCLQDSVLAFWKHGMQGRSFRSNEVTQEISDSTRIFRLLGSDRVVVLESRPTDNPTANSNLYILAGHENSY
Kind of test: Selectivity interaction (KinomeScan (DiscoverX)) EUB0000595a MAP4K3. The settings on record: at 10 µM.

LIM domain kinase 2 (Homo sapiens), sequence (P53671 whole entry, looked up, the tested form may be a part): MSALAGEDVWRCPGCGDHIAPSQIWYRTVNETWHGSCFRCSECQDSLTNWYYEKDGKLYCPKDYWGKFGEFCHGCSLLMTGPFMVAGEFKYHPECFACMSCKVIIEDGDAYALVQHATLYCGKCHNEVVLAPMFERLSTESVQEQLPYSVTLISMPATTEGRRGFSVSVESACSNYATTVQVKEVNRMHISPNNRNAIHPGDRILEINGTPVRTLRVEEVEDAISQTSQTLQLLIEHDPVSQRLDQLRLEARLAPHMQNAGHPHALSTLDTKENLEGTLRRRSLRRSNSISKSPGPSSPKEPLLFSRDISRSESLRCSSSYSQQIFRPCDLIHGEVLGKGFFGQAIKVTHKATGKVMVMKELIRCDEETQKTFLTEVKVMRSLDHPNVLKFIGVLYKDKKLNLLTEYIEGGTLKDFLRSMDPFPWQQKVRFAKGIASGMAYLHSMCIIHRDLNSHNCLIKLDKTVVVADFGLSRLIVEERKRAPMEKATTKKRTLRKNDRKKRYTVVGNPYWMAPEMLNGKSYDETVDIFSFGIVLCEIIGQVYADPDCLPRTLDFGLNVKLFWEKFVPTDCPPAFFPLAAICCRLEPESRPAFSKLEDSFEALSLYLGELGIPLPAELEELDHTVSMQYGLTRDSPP
Platelet-derived growth factor receptor alpha, sequence (P16234 whole entry): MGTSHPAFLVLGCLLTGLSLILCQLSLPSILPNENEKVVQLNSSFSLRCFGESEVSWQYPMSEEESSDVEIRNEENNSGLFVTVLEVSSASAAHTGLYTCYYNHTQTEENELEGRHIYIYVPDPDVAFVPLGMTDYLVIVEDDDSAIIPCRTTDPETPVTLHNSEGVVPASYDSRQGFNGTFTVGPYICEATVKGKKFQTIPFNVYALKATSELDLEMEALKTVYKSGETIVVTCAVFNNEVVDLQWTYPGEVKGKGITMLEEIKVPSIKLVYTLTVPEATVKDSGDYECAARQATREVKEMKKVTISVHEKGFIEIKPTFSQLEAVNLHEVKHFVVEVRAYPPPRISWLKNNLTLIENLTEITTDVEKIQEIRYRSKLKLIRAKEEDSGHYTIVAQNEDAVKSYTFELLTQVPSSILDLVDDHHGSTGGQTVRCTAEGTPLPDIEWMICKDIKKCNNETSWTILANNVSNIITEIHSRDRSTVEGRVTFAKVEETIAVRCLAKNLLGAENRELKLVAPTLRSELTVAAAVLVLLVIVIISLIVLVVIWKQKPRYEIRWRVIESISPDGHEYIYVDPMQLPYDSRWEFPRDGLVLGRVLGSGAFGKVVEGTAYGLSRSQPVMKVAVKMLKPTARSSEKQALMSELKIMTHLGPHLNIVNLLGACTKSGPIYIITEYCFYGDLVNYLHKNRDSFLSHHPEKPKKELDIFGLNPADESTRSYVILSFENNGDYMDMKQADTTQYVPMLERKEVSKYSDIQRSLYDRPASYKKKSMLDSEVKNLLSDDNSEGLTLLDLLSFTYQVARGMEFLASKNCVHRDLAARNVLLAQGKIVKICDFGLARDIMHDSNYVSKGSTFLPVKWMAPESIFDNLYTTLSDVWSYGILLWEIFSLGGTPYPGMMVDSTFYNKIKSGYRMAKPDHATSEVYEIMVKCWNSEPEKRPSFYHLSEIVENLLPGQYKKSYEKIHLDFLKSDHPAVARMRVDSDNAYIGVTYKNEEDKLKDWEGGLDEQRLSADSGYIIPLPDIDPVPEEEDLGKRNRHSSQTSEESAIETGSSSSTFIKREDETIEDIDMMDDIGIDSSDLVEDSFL
Leukocyte tyrosine kinase receptor, sequence (P29376 whole entry): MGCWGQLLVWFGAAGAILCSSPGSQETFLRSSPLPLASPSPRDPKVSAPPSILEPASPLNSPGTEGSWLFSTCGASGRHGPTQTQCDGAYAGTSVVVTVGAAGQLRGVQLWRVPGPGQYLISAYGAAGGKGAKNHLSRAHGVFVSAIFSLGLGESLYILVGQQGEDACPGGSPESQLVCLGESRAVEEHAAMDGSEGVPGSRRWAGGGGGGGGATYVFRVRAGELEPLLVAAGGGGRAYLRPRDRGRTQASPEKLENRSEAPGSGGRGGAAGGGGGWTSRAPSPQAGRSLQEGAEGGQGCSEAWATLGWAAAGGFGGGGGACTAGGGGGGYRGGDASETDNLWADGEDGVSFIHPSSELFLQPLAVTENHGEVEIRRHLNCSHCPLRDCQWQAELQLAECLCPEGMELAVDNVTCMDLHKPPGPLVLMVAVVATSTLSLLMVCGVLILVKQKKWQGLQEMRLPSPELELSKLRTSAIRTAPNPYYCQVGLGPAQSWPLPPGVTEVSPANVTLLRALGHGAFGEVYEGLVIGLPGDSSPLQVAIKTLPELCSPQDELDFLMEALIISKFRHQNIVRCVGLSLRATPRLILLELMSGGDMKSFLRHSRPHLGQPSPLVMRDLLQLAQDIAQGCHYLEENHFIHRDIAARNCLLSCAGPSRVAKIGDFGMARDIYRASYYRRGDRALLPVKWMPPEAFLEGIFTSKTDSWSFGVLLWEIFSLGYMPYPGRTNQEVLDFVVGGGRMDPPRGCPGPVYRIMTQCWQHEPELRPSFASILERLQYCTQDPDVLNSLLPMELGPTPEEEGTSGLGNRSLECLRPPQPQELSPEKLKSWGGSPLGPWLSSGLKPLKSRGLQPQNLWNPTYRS
Mast/stem cell growth factor receptor Kit (Homo sapiens), P10721 [V559D], sequence (P10721 whole entry V559D, the tested form may be a part): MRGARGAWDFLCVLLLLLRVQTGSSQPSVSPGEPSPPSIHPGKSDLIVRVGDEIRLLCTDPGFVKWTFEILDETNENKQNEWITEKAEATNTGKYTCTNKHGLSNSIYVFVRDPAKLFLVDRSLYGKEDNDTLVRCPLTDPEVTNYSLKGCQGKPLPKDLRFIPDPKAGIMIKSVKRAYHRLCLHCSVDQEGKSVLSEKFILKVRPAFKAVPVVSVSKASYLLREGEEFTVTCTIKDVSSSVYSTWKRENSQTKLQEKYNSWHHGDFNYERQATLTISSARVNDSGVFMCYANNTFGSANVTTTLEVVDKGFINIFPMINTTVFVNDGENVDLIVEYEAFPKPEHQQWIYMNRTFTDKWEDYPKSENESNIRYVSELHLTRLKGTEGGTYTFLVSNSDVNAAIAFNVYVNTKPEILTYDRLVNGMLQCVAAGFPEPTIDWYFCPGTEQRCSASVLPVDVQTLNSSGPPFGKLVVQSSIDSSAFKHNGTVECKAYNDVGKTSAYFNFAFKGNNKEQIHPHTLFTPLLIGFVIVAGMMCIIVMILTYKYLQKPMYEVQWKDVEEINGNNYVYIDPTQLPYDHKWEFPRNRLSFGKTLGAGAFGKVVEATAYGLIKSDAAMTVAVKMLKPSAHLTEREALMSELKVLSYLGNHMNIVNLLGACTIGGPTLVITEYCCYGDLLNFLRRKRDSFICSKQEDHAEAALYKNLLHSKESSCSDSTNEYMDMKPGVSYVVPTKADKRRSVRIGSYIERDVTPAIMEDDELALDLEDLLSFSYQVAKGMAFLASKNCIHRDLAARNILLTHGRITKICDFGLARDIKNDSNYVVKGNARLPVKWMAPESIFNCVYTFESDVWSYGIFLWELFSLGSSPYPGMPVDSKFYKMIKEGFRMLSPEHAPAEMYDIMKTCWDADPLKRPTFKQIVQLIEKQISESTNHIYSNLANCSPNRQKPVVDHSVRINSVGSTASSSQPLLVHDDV
Serine/threonine-protein kinase SIK2 (Homo sapiens), sequence (Q9H0K1 whole entry, looked up): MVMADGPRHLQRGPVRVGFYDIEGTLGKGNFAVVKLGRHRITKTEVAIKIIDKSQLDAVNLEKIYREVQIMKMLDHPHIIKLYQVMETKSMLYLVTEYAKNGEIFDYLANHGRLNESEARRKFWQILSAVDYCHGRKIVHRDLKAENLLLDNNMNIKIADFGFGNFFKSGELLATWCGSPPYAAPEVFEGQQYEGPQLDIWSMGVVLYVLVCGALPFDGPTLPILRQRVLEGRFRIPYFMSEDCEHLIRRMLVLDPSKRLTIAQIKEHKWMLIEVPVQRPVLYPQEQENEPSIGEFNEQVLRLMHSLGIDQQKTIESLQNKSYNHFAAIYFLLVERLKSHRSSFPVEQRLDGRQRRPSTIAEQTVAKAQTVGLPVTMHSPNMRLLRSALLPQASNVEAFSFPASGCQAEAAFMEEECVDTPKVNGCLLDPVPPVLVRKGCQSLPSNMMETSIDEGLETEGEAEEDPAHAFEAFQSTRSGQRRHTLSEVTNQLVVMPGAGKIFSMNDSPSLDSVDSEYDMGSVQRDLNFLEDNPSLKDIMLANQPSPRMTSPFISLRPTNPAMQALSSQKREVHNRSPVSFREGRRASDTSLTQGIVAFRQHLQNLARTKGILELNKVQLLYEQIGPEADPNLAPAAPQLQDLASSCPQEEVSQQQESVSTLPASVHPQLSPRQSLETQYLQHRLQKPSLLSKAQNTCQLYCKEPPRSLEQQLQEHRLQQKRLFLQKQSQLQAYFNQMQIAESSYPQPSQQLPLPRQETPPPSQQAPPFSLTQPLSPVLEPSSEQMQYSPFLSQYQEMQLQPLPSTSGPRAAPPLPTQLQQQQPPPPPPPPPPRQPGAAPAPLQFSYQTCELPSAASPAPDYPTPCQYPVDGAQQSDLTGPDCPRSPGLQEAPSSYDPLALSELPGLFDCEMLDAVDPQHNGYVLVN
Calcium/calmodulin-dependent protein kinase type 1D (Homo sapiens), sequence (Q8IU85 whole entry, looked up): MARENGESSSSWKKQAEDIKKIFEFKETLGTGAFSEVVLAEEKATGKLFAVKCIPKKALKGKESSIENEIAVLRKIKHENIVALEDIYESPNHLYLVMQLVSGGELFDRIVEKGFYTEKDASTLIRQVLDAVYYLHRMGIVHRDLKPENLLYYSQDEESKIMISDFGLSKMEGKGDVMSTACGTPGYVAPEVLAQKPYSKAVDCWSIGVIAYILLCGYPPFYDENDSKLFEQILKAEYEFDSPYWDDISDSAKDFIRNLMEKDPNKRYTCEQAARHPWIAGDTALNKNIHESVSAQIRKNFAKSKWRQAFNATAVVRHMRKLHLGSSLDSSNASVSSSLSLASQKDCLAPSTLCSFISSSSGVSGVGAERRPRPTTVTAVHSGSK

The term IC50 denotes the concentration that gives 50% inhibition. Consider `Cn1cc(-n2cnc3c(NCc4nc5cc(Cl)c(Cl)cc5[nH]4)nc(N4CCOCC4)nc32)cn1`, for which, in test [1], the IC50 is more than 10 µM. For the compound `Cc1cc([C@@H](C)Nc2ccccc2C(=O)O)c2nc(N3CCOCC3)cc(=O)n2c1` [AZD-6482], in [2], the IC50 was determined as 0.01 µM. `O=C(NOC[C@H](O)CO)c1ccc(F)c(F)c1Nc1ccc(I)cc1F` had a % of control in test [3] of 100%. In the case of `COc1cc(N(C)c2ccnc3ccc(C(F)(F)F)cc23)cc(OC)c1OC`, the % binding in test [4] is 99%.

Consider `CN(C)CCOc1ccc(-c2nc(-c3ccncc3)c(-c3ccc4c(c3)CC/C4=N\O)[nH]2)cc1`, for which, in [5], the % of control stood at 100%. The compound `CCC(=O)N1CC[C@H](Nc2ncnc3c2CN(c2cnc(OC)c(C(F)(F)F)c2)CC3)C1` [LENIOLISIB] returned an IC50 in test [6] of more than 10 µM. In test [7], `CC[C@@H]1[C@H](F)C(=O)N[C@@H]1COc1nccc2cc(C(N)=O)c(OC)cc12` [ZIMLOVISERTIB] registered a % of inhibition of 9.99%. As to `CCN(CC)CCCCNc1ncc2cc(-c3cc(OC)cc(OC)c3)c(NC(=O)NC(C)(C)C)nc2n1`, the % of control in test [8], in test [9] and in [10] was 100% each time. Turning to `COc1cc(Nc2nc(C)cc(-c3cnn4nc(OC)ccc34)n2)cc(C(F)(F)F)c1`, the % of control in test [11] came to 100%. In the case of `O[C@H]1CC[C@H](Nc2ncc3nc(Nc4c(F)cc(F)cc4F)n([C@H]4CCOC4)c3n2)CC1`, the % of control in test [12] stood at 100%. As to `Cc1ccc(-c2ccc3c(ccc4sc5c(c43)NC[C@@H](C)NC5=O)n2)cn1`, the IC50 in test [13] was found to be 0.07 µM. In turn, `COCC(=O)NC/C=C/c1ccc2ncnc(Nc3ccc(Oc4ccc(C)nc4)c(C)c3)c2c1` [CP-724714] yielded a % of control in [14] of 80%.
